The values below come from patent publication US20140135270A1, “MACROCYCLIC COMPOUNDS FOR INHIBITION OF INHIBITORS OF APOPTOSIS” (Ensemble Therapeutics Corp., priority 2012, published 2014).

Broadly, the IC50 is the concentration needed to halve the response being measured. Lower therefore signals greater potency in that assay.

Assay [1] concerns the target T1, His-BIR2-3 (125-356, C202A/C213G, XIAP) (Homo sapiens, UniProt P98170, C202A/C213G).
T1 construct: additions of His-BIR2-3 (125-356, C202A/C213G, XIAP), fluorescein labeled dimeric SMAC peptide
Nature of the assay: XIAP-BIR2-3 Dimeric SMAC Peptide Homogeneous Time Resolved Fluorescence (HTRF) Assay. Conditions: fluorescein labeled dimeric SMAC peptide. The class given is binding. (In general: Time-resolved FRET reads energy transfer from a long-lived donor to a nearby acceptor.)

In the next assay the target is T2, His-BIR3 (241-356, XIAP) (Homo sapiens, UniProt P98170).
T2 construct: additions of His-BIR3 (241-356, XIAP), fluorescein labeled SMAC peptide
Nature of the assay: XIAP-BIR3/SMAC Homogeneous Time Resolved Fluorescence (HTRF) Assay. The assay is classed as binding. Conditions: fluorescein labeled SMAC peptide.

T2 sequence (P98170 241-356): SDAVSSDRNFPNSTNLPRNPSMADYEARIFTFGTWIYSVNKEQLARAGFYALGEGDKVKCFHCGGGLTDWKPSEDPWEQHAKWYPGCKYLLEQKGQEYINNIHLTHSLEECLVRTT
T1 sequence (P98170 125-356 C202A/C213G): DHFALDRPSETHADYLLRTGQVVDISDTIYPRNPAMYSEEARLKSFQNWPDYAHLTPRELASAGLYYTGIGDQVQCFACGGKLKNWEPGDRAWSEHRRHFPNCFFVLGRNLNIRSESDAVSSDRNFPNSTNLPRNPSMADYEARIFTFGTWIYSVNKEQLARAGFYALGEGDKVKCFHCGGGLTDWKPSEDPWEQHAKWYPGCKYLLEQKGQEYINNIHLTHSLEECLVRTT

For the molecule `CN[C@@H](C)C(=O)N[C@H](C(=O)N1C[C@H]2C/C=C/COc3ccc(cc3)C[C@@H](C(=O)O)NC(=O)[C@H]([C@H](C)c3ccc4ccccc4c3)NC(=O)[C@@H]3C[C@@H](CN3C(=O)[C@@H](NC(=O)[C@H](C)NC)C(C)(C)C)n3cc(nn3)COc3ccc(cc3)C[C@@H](C(=O)NS(=O)(=O)C3CC3)NC(=O)[C@H](Cc3ccc4ccccc4c3)NC(=O)[C@@H]1C2)C(C)(C)C` [Example 98], the IC50 in assay [1] turned out to be 2.2 nM; at His-BIR3 (241-356, XIAP), 4.4 nM.

As for `CN[C@@H](C)C(=O)N[C@H](C(=O)N1C[C@@H]2C[C@H]1C(=O)NC(Cc1ccc3ccccc3c1)C(=O)N[C@H](C(=O)O)Cc1ccc(cc1)OCCCC[C@H]1C[C@@H](C(=O)N[C@@H](Cc3ccc4ccccc4c3)C(=O)N[C@H](c3nnn[nH]3)Cc3ccc(cc3)OCc3cn2nn3)N(C(=O)[C@@H](NC(=O)[C@H](C)NC)C(C)(C)C)C1)C(C)(C)C` (some centres unmarked) [Example 99], the half-maximal inhibitory concentration (IC50) is 3.7 nM in assay [1] and 2.4 nM against His-BIR3 (241-356, XIAP).

For the molecule `CN[C@@H](C)C(=O)N[C@H](C(=O)N1C[C@@H]2C[C@H]1C(=O)NC(Cc1ccc3ccccc3c1)C(=O)N[C@H](C(=O)NS(=O)(=O)C1CC1)Cc1ccc(cc1)OCCCC[C@H]1C[C@@H](C(=O)N[C@@H](Cc3ccc4ccccc4c3)C(=O)N[C@H](C(=O)NS(=O)(=O)C3CC3)Cc3ccc(cc3)OCc3cn2nn3)N(C(=O)[C@@H](NC(=O)[C@H](C)NC)C(C)(C)C)C1)C(C)(C)C` (some centres unmarked) [Example 100], the 50% inhibitory concentration (IC50) turned out to be 4.2 nM in assay [1] and 4.6 nM on His-BIR3 (241-356, XIAP).

With `CN[C@@H](C)C(=O)N[C@H](C(=O)N1C[C@@H]2C[C@H]1C(=O)NC(Cc1ccc3ccccc3c1)C(=O)N[C@H](C(=O)NS(=O)(=O)CCCO)Cc1ccc(cc1)OCCCC[C@H]1C[C@@H](C(=O)N[C@@H](Cc3ccc4ccccc4c3)C(=O)N[C@H](C(=O)O)Cc3ccc(cc3)OCc3cn2nn3)N(C(=O)[C@@H](NC(=O)[C@H](C)NC)C(C)(C)C)C1)C(C)(C)C` (some centres unmarked) [Example 101], the half-maximal inhibitory concentration (IC50) is 1 nM in assay [1] and 6.1 nM against His-BIR3 (241-356, XIAP).

Turning to `CN[C@@H](C)C(=O)N[C@H](C(=O)N1C[C@@H]2C[C@H]1C(=O)N[C@@H](Cc1ccc3ccccc3c1)C(=O)N[C@H](C(=O)O)Cc1ccc(cc1)OC/C=C/C[C@H]1C[C@@H](C(=O)N[C@@H](Cc3ccc4ccccc4c3)C(=O)N[C@H](C(=O)NS(=O)(=O)C3CC3)Cc3ccc(cc3)OCc3cnnn32)N(C(=O)[C@@H](NC(=O)[C@H](C)NC)C(C)(C)C)C1)C(C)(C)C` [Example 102], the IC50 was 35 nM in assay [1] and 10 nM at His-BIR3 (241-356, XIAP).

As for `CN[C@@H](C)C(=O)N[C@H](C(=O)N1C[C@@H]2C[C@H]1C(=O)N[C@@H](C)C(=O)N[C@H](C(=O)NS(=O)(=O)C1CC1)Cc1ccc(cc1)OCc1cn(nn1)[C@H]1C[C@@H](C(=O)N[C@@H](Cc3ccc4ccccc4c3)C(=O)N[C@H](C(=O)O)Cc3ccc(cc3)OC/C=C/CO2)N(C(=O)[C@@H](NC(=O)[C@H](C)NC)C(C)(C)C)C1)C(C)(C)C` [Example 103], the IC50 in assay [1] came out at 2.9 nM; against His-BIR3 (241-356, XIAP) it was 67.2 nM.

Turning to `CN[C@@H](C)C(=O)N[C@H](C(=O)N1C[C@@H]2C[C@H]1C(=O)N[C@@H](Cc1ccc3ccccc3c1)C(=O)N[C@H](C(=O)O)Cc1ccc(cc1)OC/C=C/CO[C@H]1C[C@@H](C(=O)N[C@@H](C(c3ccccc3)c3ccccc3)C(=O)N[C@H](C(=O)NS(=O)(=O)C3CC3)Cc3ccc(cc3)OCc3cn2nn3)N(C(=O)[C@@H](NC(=O)[C@H](C)NC)C(C)(C)C)C1)C(C)(C)C` [Example 104], the IC50 in assay [1] worked out at 8.7 nM; against His-BIR3 (241-356, XIAP) it was 105 nM.

In the case of `CN[C@@H](C)C(=O)N[C@H](C(=O)N1C[C@@H]2C[C@H]1C(=O)N[C@@H](Cc1ccc3ccccc3c1)C(=O)N[C@H](C(=O)O)Cc1ccc(cc1)OC/C=C/CO[C@H]1C[C@@H](C(=O)N3Cc4ccccc4C[C@H]3C(=O)N[C@H](C(=O)NS(=O)(=O)C3CC3)Cc3ccc(cc3)OCc3cn2nn3)N(C(=O)[C@@H](NC(=O)[C@H](C)NC)C(C)(C)C)C1)C(C)(C)C` [Example 105], the IC50 was found to be 13.2 nM in assay [1] and 49.7 nM against His-BIR3 (241-356, XIAP).

On to `CN[C@@H](C)C(=O)N[C@H](C(=O)N1C[C@@H]2C[C@H]1C(=O)N[C@@H](Cc1ccc3ccccc3c1)C(=O)N[C@H](C(=O)O)Cc1ccc(cc1)OC/C=C/CO[C@H]1C[C@@H](C(=O)N[C@@H](Cc3ccc(-c4ccccc4)cc3)C(=O)N[C@H](C(=O)NS(=O)(=O)C3CC3)Cc3ccc(cc3)OCc3cn2nn3)N(C(=O)[C@@H](NC(=O)[C@H](C)NC)C(C)(C)C)C1)C(C)(C)C` [Example 106], for which the half-maximal inhibitory concentration (IC50) came to 1.7 nM in assay [1] and 17.9 nM against His-BIR3 (241-356, XIAP).

As for `CC[C@H](NC(=O)[C@H](C)NC)C(=O)N1C[C@@H]2C[C@H]1C(=O)N[C@@H](Cc1ccc3ccccc3c1)C(=O)N[C@H](C(=O)NS(=O)(=O)C1CC1)Cc1ccc(cc1)OCc1cn(nn1)[C@H]1C[C@@H](C(=O)N[C@@H](Cc3ccc4ccccc4c3)C(=O)N[C@H](C(=O)O)Cc3ccc(cc3)OC/C=C/CO2)N(C(=O)[C@@H](NC(=O)[C@H](C)NC)C(C)(C)C)C1` [Example 107], the half-maximal inhibitory concentration (IC50) in assay [1] came to 1.7 nM; against His-BIR3 (241-356, XIAP), 26.1 nM.

`CN[C@@H](C)C(=O)N[C@H](C(=O)N1C[C@@H]2C[C@H]1C(=O)N[C@@H](Cc1ccc3ccccc3c1)C(=O)N[C@H](C(=O)NS(=O)(=O)C1CC1)Cc1ccc(cc1)OCc1cn(nn1)[C@H]1C[C@@H](C(=O)N[C@@H](Cc3ccc4ccccc4c3)C(=O)N[C@H](C(=O)O)Cc3ccc(cc3)OC/C=C/CO2)N(C(=O)[C@@H](NC(=O)[C@H](C)NC)C(C)(C)C)C1)C1CCCCC1` [Example 108]: the 50% inhibitory concentration (IC50) amounted to 7.8 nM in assay [1] and 90.3 nM on His-BIR3 (241-356, XIAP).

For the molecule `CN[C@@H](C)C(=O)N[C@H](C(=O)N1C[C@@H]2C[C@H]1C(=O)N[C@@H](Cc1ccc3ccccc3c1)C(=O)N[C@H](C(=O)NS(=O)(=O)C1CC1)Cc1ccc(cc1)OCc1cn(nn1)[C@H]1C[C@@H](C(=O)N[C@@H](Cc3ccc4ccccc4c3)C(=O)N[C@H](C(=O)O)Cc3ccc(cc3)OC/C=C/CO2)N(C(=O)[C@@H](NC(=O)[C@H](C)NC)C(C)(C)C)C1)C1CCOCC1` [Example 109], the IC50 in assay [1] is 4.4 nM; against His-BIR3 (241-356, XIAP), 44.3 nM.

In the case of `CN[C@@H](C)C(=O)N[C@H](C(=O)N1C[C@@H]2C[C@H]1C(=O)N[C@@H](Cc1ccc3ccccc3c1)C(=O)N[C@H](C(=O)NS(=O)(=O)C1CC1)Cc1ccc(cc1)OCc1cn(nn1)[C@H]1C[C@@H](C(=O)N[C@@H](Cc3ccc4ccccc4c3)C(=O)N[C@H](C(=O)O)Cc3ccc(cc3)OC/C=C/CO2)N(C(=O)[C@@H](NC(=O)[C@H](C)NC)C(C)(C)C)C1)C1CCNCC1` [Example 110], the 50% inhibitory concentration (IC50) in assay [1] was determined as 1.5 nM; on His-BIR3 (241-356, XIAP), 10 nM.

`CN[C@@H](C)C(=O)N[C@H](C(=O)N1C[C@@H]2C[C@H]1C(=O)N[C@@H](Cc1ccc3ccccc3c1)C(=O)N[C@H](C(=O)O)Cc1ccc(cc1)OC/C=C/CO[C@H]1C[C@@H](C(=O)N[C@@H](Cc3ccc4ccccc4c3)C(=O)N[C@H](C(=O)NS(=O)(=O)C3CC3)Cc3ccc(cc3)OCc3cn2nn3)N(C(=O)[C@H](NC(=O)[C@H](C)NC)[C@@H](C)O)C1)C(C)(C)C` [Example 111]: the IC50 in assay [1] was 2.6 nM; at His-BIR3 (241-356, XIAP), 34.1 nM.

On to `CN[C@@H](C)C(=O)N[C@H](C(=O)N1C[C@@H]2C[C@H]1C(=O)N[C@@H](Cc1ccc3ccccc3c1)C(=O)N[C@H](C(=O)O)Cc1ccc(cc1)OC/C=C/CO[C@H]1C[C@@H](C(=O)N[C@@H](Cc3ccc(-c4ccc(O)cc4)cc3)C(=O)N[C@H](C(=O)NS(=O)(=O)C3CC3)Cc3ccc(cc3)OCc3cn2nn3)N(C(=O)[C@@H](NC(=O)[C@H](C)NC)C(C)(C)C)C1)C(C)(C)C` [Example 113], for which the half-inhibitory concentration (IC50) amounted to 7.1 nM in assay [1] and 13.5 nM against His-BIR3 (241-356, XIAP).

Consider `CN[C@@H](C)C(=O)N[C@H](C(=O)N1C[C@@H]2C[C@H]1C(=O)N[C@@H](Cc1ccc3ccccc3c1)C(=O)N[C@H](C(=O)O)Cc1ccc(cc1)OC/C=C/CO[C@H]1C[C@@H](C(=O)N[C@@H](Cc3ccc(-c4cccc(F)c4)cc3)C(=O)N[C@H](C(=O)NS(=O)(=O)C3CC3)Cc3ccc(cc3)OCc3cn2nn3)N(C(=O)[C@@H](NC(=O)[C@H](C)NC)C(C)(C)C)C1)C(C)(C)C` [Example 115], for which the 50% inhibitory concentration (IC50) in assay [1] came out at 11.1 nM; at His-BIR3 (241-356, XIAP) it was 18.1 nM.

In the case of `CN[C@@H](C)C(=O)N[C@H](C(=O)N1C[C@@H]2C[C@H]1C(=O)N[C@@H](Cc1ccc3ccccc3c1)C(=O)N[C@H](C(=O)O)Cc1ccc(cc1)OC/C=C/CO[C@H]1C[C@@H](C(=O)N[C@@H](Cc3cccc(-c4cccnc4)c3)C(=O)N[C@H](C(=O)NS(=O)(=O)C3CC3)Cc3ccc(cc3)OCc3cn2nn3)N(C(=O)[C@@H](NC(=O)[C@H](C)NC)C(C)(C)C)C1)C(C)(C)C` [Example 116], the half-inhibitory concentration (IC50) amounted to 20.1 nM in assay [1] and 30.8 nM at His-BIR3 (241-356, XIAP).

For `CN[C@@H](C)C(=O)N[C@H](C(=O)N1C[C@@H]2C[C@H]1C(=O)N[C@@H](Cc1ccc3ccccc3c1)C(=O)N[C@H](C(=O)O)Cc1ccc(cc1)OC/C=C/CO[C@H]1C[C@@H](C(=O)N[C@@H](Cc3cccc(-c4ccc(CO)cc4)c3)C(=O)N[C@H](C(=O)NS(=O)(=O)C3CC3)Cc3ccc(cc3)OCc3cn2nn3)N(C(=O)[C@@H](NC(=O)[C@H](C)NC)C(C)(C)C)C1)C(C)(C)C` [Example 117], the IC50 stood at 11.3 nM in assay [1] and 9.4 nM on His-BIR3 (241-356, XIAP).

Turning to `CN[C@@H](C)C(=O)N[C@H](C(=O)N1C[C@@H]2C[C@H]1C(=O)N[C@@H](Cc1ccc3ccccc3c1)C(=O)N[C@H](C(=O)O)Cc1ccc(cc1)OC/C=C/CO[C@H]1C[C@@H](C(=O)N[C@@H](Cc3ccc4ccccc4c3)C(=O)N[C@H](C(=O)NS(=O)(=O)c3ccccn3)Cc3ccc(cc3)OCc3cn2nn3)N(C(=O)[C@@H](NC(=O)[C@H](C)NC)C(C)(C)C)C1)C(C)(C)C` [Example 118], the IC50 came out at 1.8 nM in assay [1] and 6.3 nM against His-BIR3 (241-356, XIAP).
